The values below come from patent US20200223839A1, “FLUORO-CONTAINING COMPOUNDS, USE AND PREPARATION THEREOF” (JIANGSU YINGKEBEITA YIYAOKEJI CO. LTD, priority 2017, published 2020).

In assay [1] the test system is A549. Nature of the assay: Cytotoxicity assay by the CTG method, A549. The class given is cell-based. The note with it: Homo sapiens, A549, Lung cancer, 72 h. On the procedure: (§1) The corresponding cells were harvested from flask into cell culture medium and the cell number were counted. The cells were diluted with culture medium to the desired density and 40 μL of cell suspension was added into each well of 384-well cell culture plate as designated. The plates were covered with lid and placed in room temperature for 30 minutes without shaking and then were transferred plates into 37° C. 5% CO2 incubator overnight for cell attachment.
(§2) Compound preparation and treatment: Test compounds were received or dissolved at 30 mM stock solution and control compound Staurosporine was stored as 10 mM and 1 mM concentration. 45 uL of stock solution was transferred to a 384 pp-plate. 3 fold, 10-point dilution were performed via transferring 15 uL compound into 30 μL DMSO by using TECAN (EVO200) liquid handler. The plates were spun at room temperature at 1,000 RPM for 1 minute and shaken at a plate shaker for 2 minutes. […]
(§3) The plate from incubators were placed and equilibrated at room temperature for 15 minutes. […] 40 μL of CellTiter-Glo reagent were transferred into each well to be detected (at 1:1 to culture medium). Then the plates were placed at room temperature for 30 min followed by reading on EnSpire.
(§4) The inhibition activity was calculated following the formula below: […]
(§5) The IC50 were calculated by fitting the Curve using Xlfit (v5.3.1.3): […]

Assay [2] concerns A549. Nature of the assay: Cell culture and cytotoxicity assay (CTG), A549. The class given is cell-based. The settings on record: Homo sapiens, A549, exposure 72 hours. As to the method: The assayed compounds each was dissolved in DMSO with a final concentration of 10 mM or 40 mM and stored at −20° C. Tumor cell lines A549 (7,000 cells/well), BT474 (12,000 cells/well), MDA-MB-468 (12,000 cells/well), and HCC1937 (6,000 cells/well) were seeded on 96-well plates. And the cells were pre-incubated at 37° C./5% CO2 for 24 hours. The cells were exposed to different concentrations of the assay compounds (from 400 μM to 782 nM, from 200 μM to 391 nM, from 100 μM to 196 nM, and from 50 μM to 98 nM) for the following time:
After incubation, 100 μL from each well was discarded and CTG base (Proega, G7571, 50 μL) was added and the mixture was agitated for 2 minutes. The mixtures were stored in a dark room for 10 minutes and the viability was analyzed with Multiskan microplate reader.

The test system of another assay is PLC/PRF/5. Nature of the assay: Cytotoxicity assay by the CTG method, PLC/PRF/5. Type of assay: cell-based. The settings on record: Homo sapiens, PLC/PRF/5, Liver cancer, 72 h. On the procedure:
as §1, §2, §3, §4, §5

The subject of the next assay is MDA-MB-468. Nature of the assay: Cytotoxicity assay by the CTG method, MDA-MB-468. Type of assay: cell-based. The note with it: Homo sapiens, MDA-MB-468, Breast cancer, 72 h. As to the method: as §1, §2, §3, §4, §5
The subject of assay [3] is MDA-MB-468 cells (human breast cancer) implanted in BALB/c-nu mice. Nature of the assay: In vivo xenograft study, MDA-MB-468, tumor sizes. The note with it: MDA-MB-468 xenograft in BALB/c-nu mice, FIGS. 2 and 4. On the procedure:
MDA-MB-468 cells (human breast cancer) in its log growth phase were implanted in BALB/c-nu mice. When the tumor volume was approximately 50-150 mm^3, the mice were randomized into four groups, each include 8 mice. The four groups were treated with vehicle, Ref. 1, 4f, and Ref. 2, respectively, and the tumor sizes were measured two to three times each week and the mice were also weighted.

Consider `Cc1ccc(S(=O)(=O)Nc2nc3ccccc3nc2Nc2ccc3nsnc3c2)cc1F` [Compound 4f, N-[3-(benzo[1,2,5]thiadiazol-5-ylamino)-quinoxalin-2-yl]-3-fluoro-4-methyl-benzenesulfonamide], for which the IC50 with A549 [1] is 8.33 µM; in the assay with A549 [2], 25000 to 50000 nM; in the assay with PLC/PRF/5 it was 3.27 µM; with MDA-MB-468, 2.49 µM. Further, the “anticancer activity (tumor sizes) versus vehicle” value in assay [3] is on record as “significant anticancer activities”.

A word on the IC50: it is the concentration that inhibits the measured activity by half. Low readings indicate higher potency, high ones lower potency.
